Literature values in Sander's compilation of Henry's law constants.
Values joined by “and” are separate entries in the source; they are usually repeats but may differ in a detail not shown here. Equal entries are not always repeated.

Assay: Henry solubility constant Hcp at 298.15 K (mol/(m3 Pa))
Settings: cited value
[1] = reference: Fogg and Sangster (2003)
[2] = reference: Mackay et al. (1992b)
[3] = reference: Burkholder et al. (2015)
[4] = reference: Burkholder et al. (2019)
[5] = reference: Mackay et al. (1995)
[6] = reference: Barcelo and Hennion (1997)
[7] = reference: Petrasek et al. (1983)

In the case of `CCC(=O)CC` [3-pentanone], the “Henry solubility constant Hcp” value (reference: Brockbank (2013)) is given as 0.089, the “Henry solubility constant Hcp” value (reference: Cabani et al. (1981)) is given as 0.13 and the “Henry solubility constant Hcp” value (reference: Howard (1993)) is given as 0.11.

In the case of `Brc1ccc(Oc2ccc(Br)cc2)cc1` [4,4'-dibromodiphenyl ether], the “Henry solubility constant Hcp” value (reference: Wania and Dugani (2003)) is given as 0.24.

In the case of `Clc1ccc(-c2ccc(Cl)cc2)cc1` [4,4'-dichlorobiphenyl], the “Henry solubility constant Hcp” value (reference: Murphy et al. (1983b)) is listed as 0.033.

For `O=[N+]([O-])c1ccc(Cl)cc1` [4-chloronitrobenzene], the “Henry solubility constant Hcp” value (reference: Brockbank (2013)) is given as 0.64.

In the case of `CCCC(=O)CCC` [4-heptanone], the “Henry solubility constant Hcp” value (reference: Brockbank (2013)) is given as 0.051.

In the case of `CC(C)CC(C)O` (centres undefined) [4-methyl-2-pentanol], the “Henry solubility constant Hcp” value (reference: Brockbank (2013)) is given as 0.22.

In the case of `CC(=O)CC(C)C` [4-methyl-2-pentanone], the “Henry solubility constant Hcp” value (reference: Brockbank (2013)) is listed as 0.069 and the “Henry solubility constant Hcp” value (reference: Howard (1990)) is listed as 0.11.

For `CCCC(C)CCC` [4-methylheptane], the “Henry solubility constant Hcp” value (reference: Brockbank (2013)) is listed as 2.7e-06.

For `Cc1ccncc1` [4-methylpyridine], the “Henry solubility constant Hcp” value (reference: Brockbank (2013)) is listed as 1.6.

For `Nc1ccc([N+](=O)[O-])cc1` [4-nitrobenzenamine], the “Henry solubility constant Hcp” value (reference: Brockbank (2013)) is given as 8700.

In the case of `O=[N+]([O-])c1ccc(O)cc1` [4-nitrophenol], the “Henry solubility constant Hcp” value (reference: Goldstein (1982)) is listed as 9.8.

In the case of `Cc1ccc([N+](=O)[O-])cc1` [4-nitrotoluene], the “Henry solubility constant Hcp” value (reference: Brockbank (2013)) is listed as 0.89 and the “Henry solubility constant Hcp” value (reference: Goldstein (1982)) is listed as 0.16.

For `CCCCC(=O)CCCC` [5-nonanone], the “Henry solubility constant Hcp” value (reference: Brockbank (2013)) is listed as 0.04.

In the case of `CC(C)(C)OC=O` [(1,1-dimethylethyl)-methanoate], the “Henry solubility constant Hcp” value (reference: Brockbank (2013)) is listed as 0.014.

For `C=COCC(F)(F)F` [(2,2,2-trifluoroethoxy)-ethene], the “Henry solubility constant Hcp” value [1] is listed as 0.00054.

In the case of `CC(C)COC=O` [(2-methylpropyl)-methanoate], the “Henry solubility constant Hcp” value (reference: Brockbank (2013)) is given as 0.016.

In the case of `CC(C)c1ccccc1` [(2-propyl)-benzene], the “Henry solubility constant Hcp” value (reference: Brockbank (2013)) is listed as 0.0009.

For `CCC/C=C/C=O` [(E)-2-hexenal], the “Henry solubility constant Hcp” value (reference: Meynier et al. (2003)) is given as 0.2.

For `C(=C\c1ccccc1)/c1ccccc1` [(E)-stilbene], the “Henry solubility constant Hcp” value [2] is listed as 0.025.

For `ClCc1ccccc1` [(chloromethyl)-benzene], the “Henry solubility constant Hcp” value (reference: Brockbank (2013)) is given as 0.022.

For `ClCC1CO1` (centres undefined) [(chloromethyl)-oxirane], the “Henry solubility constant Hcp” value (reference: Goldstein (1982)) is given as 0.28.

For `CCN(CC)c1ccccc1` [(diethylamino)-benzene], the “Henry solubility constant Hcp” value (reference: Brockbank (2013)) is listed as 0.067.

In the case of `CCNc1ccccc1` [(ethylamino)-benzene], the “Henry solubility constant Hcp” value (reference: Brockbank (2013)) is given as 0.81.

For `OCc1ccccc1` [(hydroxymethyl)-benzene], the “Henry solubility constant Hcp” value (reference: Howard (1993)) is given as 25.

For `C=CCN(CC=C)CC=C` [N,N-di-2-propenyl-2-propen-1-amine], the “Henry solubility constant Hcp” value (reference: Brockbank (2013)) is listed as 0.039.

For `CN(Cl)Cl` [N,N-dichloromethylamine], the “Henry solubility constant Hcp” value [3] is given as 0.0033 and the “Henry solubility constant Hcp” value [4] is given as 0.0033.

For `CN1CCCC1=O` [N-methyl-2-pyrrolidone], the “Henry solubility constant Hcp” value (reference: Brockbank (2013)) is listed as 3100.

For `CNC(C)=O` [N-methylacetamide], the “Henry solubility constant Hcp” value [3] is given as 2100 and the “Henry solubility constant Hcp” value [4] is given as 2100.

For `CNC=O` [N-methylmethanamide], the “Henry solubility constant Hcp” value (reference: Brockbank (2013)) is given as 1400, the “Henry solubility constant Hcp” value [3] is given as 1400 and the “Henry solubility constant Hcp” value [4] is given as 1400.

For `CN(C)N=O` [N-nitrosodimethylamine], the “Henry solubility constant Hcp” value [3] is listed as 3.9, the “Henry solubility constant Hcp” value [4] is listed as 3.9 and the “Henry solubility constant Hcp” value [5] is listed as 0.3.

In the case of `O=NN(c1ccccc1)c1ccccc1` [N-nitrosodiphenylamine], the “Henry solubility constant Hcp” value [5] is given as 0.015.

In the case of `CCCN(CCC)N=O` [N-nitrosodipropylamine], the “Henry solubility constant Hcp” value [5] is given as 1.6.

In the case of `CCCN(CCC)C(=O)SCC` [S-ethyl dipropylthiocarbamate], the “Henry solubility constant Hcp” value [6] is given as 0.01.

For `c1cc2c3c(cccc3c1)CC2` [acenaphthene], the “Henry solubility constant Hcp” value (reference: Brockbank (2013)) is listed as 0.072, the “Henry solubility constant Hcp” value [1] is listed as 0.055 and the “Henry solubility constant Hcp” value (reference: Goldstein (1982)) is listed as 0.041. The “Henry solubility constant Hcp” value (reference: HSDB (2015)) was 0.064 and the “Henry solubility constant Hcp” value (reference: McCarty (1980)) was 0.052.

For `C1=Cc2cccc3cccc1c23` [acenaphthylene], the “Henry solubility constant Hcp” value (reference: Brockbank (2013)) is given as 0.085 and the “Henry solubility constant Hcp” value [1] is given as 0.091.

For `COP(=O)(NC(C)=O)SC` (centres undefined) [acephate], the “Henry solubility constant Hcp” value [6] is given as 190000.

For `CNC(=O)O/N=C/C(C)(C)SC` [aldicarb], the “Henry solubility constant Hcp” value [6] is given as 31.

For `ClC1=C(Cl)[C@]2(Cl)[C@H]3[C@H]([C@@H]4C=C[C@H]3C4)[C@@]1(Cl)C2(Cl)Cl` [aldrin], the “Henry solubility constant Hcp” value [6] is listed as 0.00011 and the “Henry solubility constant Hcp” value (reference: Meylan and Howard (1991)) is listed as 0.02.

In the case of `C=CCSC` [allyl methyl sulfide], the “Henry solubility constant Hcp” value [3] is listed as 0.0042 and the “Henry solubility constant Hcp” value [4] is listed as 0.0042.

In the case of `CCNc1nc(NC(C)C)nc(SC)n1` [ametryn], the “Henry solubility constant Hcp” value [6] is listed as 82.

For `CC(C)c1nn(C(=O)NC(C)(C)C)c(=O)n1N` [amicarbazone], the “Henry solubility constant Hcp” value (reference: MacBean (2012b)) is listed as 1.5e+07.

In the case of `Nc1ccccc1` [aminobenzene], the “Henry solubility constant Hcp” value (reference: Brockbank (2013)) is listed as 4.9.

For `Cc1c(Br)c2ccc(F)cc2n1S(=O)(=O)c1ncn(S(=O)(=O)N(C)C)n1` [amisulbrom], the “Henry solubility constant Hcp” value (reference: MacBean (2012b)) is listed as 47.

For `Cc1ccc(N=CN(C)C=Nc2ccc(C)cc2C)c(C)c1` [amitraz], the “Henry solubility constant Hcp” value (reference: MacBean (2012b)) is listed as 1.

For `c1ccc2cc3ccccc3cc2c1` [anthracene], the “Henry solubility constant Hcp” value (reference: Brockbank (2013)) is listed as 0.33, the “Henry solubility constant Hcp” value [1] is listed as 0.17 and the “Henry solubility constant Hcp” value (reference: Goldstein (1982)) is listed as 0.35. The “Henry solubility constant Hcp” value (reference: McCarty (1980)) was 0.007 and the “Henry solubility constant Hcp” value (reference: Smith et al. (1981a)) was 0.1.

In the case of `[Ar]` [argon], the “Henry solubility constant Hcp” value (reference: Clever (1980)) is listed as 1.4e-05.

In the case of `CC(C)N1C(=O)c2ccccc2NS1(=O)=O` [bentazone], the “Henry solubility constant Hcp” value [6] is given as 130.

For `CC(C)OC(=O)N[C@@H](C(=O)N[C@H](C)c1nc2ccc(F)cc2s1)C(C)C` [benthiavalicarb isopropyl], the “Henry solubility constant Hcp” value (reference: MacBean (2012b)) is given as 110.

For `O=Cc1ccccc1` [benzaldehyde], the “Henry solubility constant Hcp” value (reference: Brockbank (2013)) is given as 0.4 and the “Henry solubility constant Hcp” value (reference: Gaffney and Senum (1984)) is given as 0.36.

For `c1ccccc1` [benzene], the “Henry solubility constant Hcp” value (reference: Brockbank (2013)) is listed as 0.0018 and the “Henry solubility constant Hcp” value (reference: Goldstein (1982)) is listed as 0.0018.

For `N#CCc1ccccc1` [benzeneacetonitrile], the “Henry solubility constant Hcp” value (reference: Brockbank (2013)) is listed as 1.1.

In the case of `O=C(O)c1ccccc1` [benzenecarboxylic acid], the “Henry solubility constant Hcp” value (reference: Goldstein (1982)) is listed as 140 and the “Henry solubility constant Hcp” value (reference: Howard (1989)) is listed as 140.

For `N#Cc1ccccc1` [benzenenitrile], the “Henry solubility constant Hcp” value (reference: Brockbank (2013)) is listed as 0.35.

In the case of `Nc1ccc(-c2ccc(N)cc2)cc1` [benzidine], the “Henry solubility constant Hcp” value [5] is listed as 25.

In the case of `c1ccc2c(c1)cc1ccc3cccc4ccc2c1c34` [benzo[a]pyrene], the “Henry solubility constant Hcp” value (reference: Brockbank (2013)) is given as 4.5 and the “Henry solubility constant Hcp” value (reference: Goldstein (1982)) is given as 0.0016.

In the case of `c1ccc2c(c1)-c1cccc3c1c-2cc1ccccc13` [benzo[b]fluoranthene], the “Henry solubility constant Hcp” value (reference: Brockbank (2013)) is given as 15.

For `c1ccc2ncccc2c1` [benzo[b]pyridine], the “Henry solubility constant Hcp” value (reference: Goldstein (1982)) is listed as 37.

For `c1cc2ccc3ccc4ccc5cccc6c(c1)c2c3c4c56` [benzo[ghi]perylene], the “Henry solubility constant Hcp” value [2] is given as 13.

For `c1ccc2c(c1)-c1cccc3cccc-2c13` [benzo[jk]fluorene], the “Henry solubility constant Hcp” value (reference: Brockbank (2013)) is given as 0.7, the “Henry solubility constant Hcp” value [1] is given as 0.54 and the “Henry solubility constant Hcp” value [7] is given as 0.99.

For `c1ccc2cc3c(cc2c1)-c1cccc2cccc-3c12` [benzo[k]fluoranthene], the “Henry solubility constant Hcp” value (reference: Goldstein (1982)) is listed as 0.0096.

For `O=COCc1ccccc1` [benzyl methanoate], the “Henry solubility constant Hcp” value (reference: Brockbank (2013)) is given as 2.

In the case of `COc1ccc(-c2ccccc2)cc1NNC(=O)OC(C)C` [bifenazate], the “Henry solubility constant Hcp” value (reference: MacBean (2012b)) is listed as 1000.

In the case of `c1ccc(-c2ccccc2)cc1` [biphenyl], the “Henry solubility constant Hcp” value (reference: Brockbank (2013)) is given as 0.036.

For `CCCCC(CC)COC(=O)c1ccccc1C(=O)OCC(CC)CCCC` (centres undefined) [bis(2-ethylhexyl)-phthalate], the “Henry solubility constant Hcp” value [7] is listed as 82.

For `ClCCOCOCCCl` [bis-(2-chloroethoxy)-methane], the “Henry solubility constant Hcp” value (reference: Goldstein (1982)) is listed as 8.8 and 26.

For `CC(CCl)OC(C)CCl` (centres undefined) [bis-(2-chloroisopropyl) ether], the “Henry solubility constant Hcp” value (reference: Goldstein (1982)) is given as 0.065 and 0.064.

In the case of `O=C(Nc1ccccc1-c1ccc(Cl)cc1)c1cccnc1Cl` [boscalid], the “Henry solubility constant Hcp” value (reference: MacBean (2012b)) is listed as 19000.

In the case of `CCC(C)n1c(=O)[nH]c(C)c(Br)c1=O` (centres undefined) [bromacil], the “Henry solubility constant Hcp” value [6] is listed as 5.2.

For `ClBr` [bromine chloride], the “Henry solubility constant Hcp” value [3] is given as 0.0097, the “Henry solubility constant Hcp” value [4] is given as 0.0097 and the “Henry solubility constant Hcp” value (reference: Sander et al. (2006)) is given as 0.0097. The “Henry solubility constant Hcp” value (reference: Sander et al. (2011)) was 0.0097.

For `Brc1ccccc1` [bromobenzene], the “Henry solubility constant Hcp” value (reference: Brockbank (2013)) is given as 0.0043, the “Henry solubility constant Hcp” value [1] is given as 0.005 and the “Henry solubility constant Hcp” value (reference: HSDB (2015)) is given as 0.0047.

In the case of `CCBr` [bromoethane], the “Henry solubility constant Hcp” value (reference: Brockbank (2013)) is given as 0.0013 and the “Henry solubility constant Hcp” value [4] is given as 0.0013.
